Read-outs that look alike come from different tables or passages of the source.
Target: T1, human LPAR1 (Homo sapiens, UniProt Q92633)
T1 construct: host or cells: TangoEDG2-bla U2OS cells
Test: Arrestin assay (Arrestin Reporter EDG2-bla U2OS), inhibition of LPA-stimulated signal
Assay type: cell-based
Conditions: TangoEDG2-bla U2OS cells expressing human LPAR1, 0.25 μM LPA
How it was run: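 IC50 comes from a variable-slope 4-parameter fit of % inhibition, calculated from the beta-lactamase FRET ratio (emission 460/530 nm, excitation 409 nm, 2 h development at RT). Compounds, 10 μM down to 0.00006 μM in 3-fold steps, were given 1 h before 0.25 μM final LPA for 3 h in TangoEDG2-bla U2OS cells.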

[1] = read-out: Arrestin Reporter EDG2-bla U2OS Human Merged IC50
[2] = read-out: Arrestin Reporter EDG2-bla U2OS Human IC50

T1 sequence (Q92633 whole entry): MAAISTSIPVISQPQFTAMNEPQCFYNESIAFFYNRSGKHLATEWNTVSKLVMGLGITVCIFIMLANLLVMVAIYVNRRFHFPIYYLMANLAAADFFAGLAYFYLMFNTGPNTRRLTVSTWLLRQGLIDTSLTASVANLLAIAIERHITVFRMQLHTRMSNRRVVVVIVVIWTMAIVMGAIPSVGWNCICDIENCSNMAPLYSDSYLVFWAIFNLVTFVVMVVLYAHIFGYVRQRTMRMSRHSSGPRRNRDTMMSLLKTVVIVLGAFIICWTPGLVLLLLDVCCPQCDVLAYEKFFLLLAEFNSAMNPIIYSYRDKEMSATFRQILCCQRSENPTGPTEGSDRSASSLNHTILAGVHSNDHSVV

| SMILES | IC50 [1] [nM] | IC50 [2] [nM] |
| --- | --- | --- |
| CC(C)c1ccnn1C1(C(=O)Nc2ccc(Cl)cc2OC(F)F)CCN(CC2(C(=O)O)CCN(C(=O)C34CC(C3)C4)CC2)CC1 [Compound 69, 1-(bicyclo[1.1.1]pentane-1-carbonyl)-4-[[4-[[4-chloro-2-(difluoromethoxy)phenyl]carbamoyl]-4-(5-isopropylpyrazol-1-yl)-1-piperidyl]methyl]piperidine-4-carboxylic acid] | 14.8 | – |
| CC(C)c1ccnn1C1(C(=O)Nc2ccc(Cl)cc2OC(F)F)CCN(CC2(C(=O)O)CC3CCC2C3)CC1 (centres unmarked) [Compound 70, 2-[[4-[[4-chloro-2-(difluoromethoxy)phenyl]carbamoyl]-4-(5-isopropylpyrazol-1-yl)-1-piperidyl]methyl]norbomane-2-carboxylic acid] | 11.4 | – |
| CC(C)c1ccnn1C1(C(=O)Nc2ccc(Cl)cc2OC(F)F)CCN(CC2(C(=O)O)CCN(C(=O)C3CCOCC3)CC2)CC1 [Compound 71, 4-[[4-[[4-chloro-2-(difluoromethoxy)phenyl]carbamoyl]-4-(5-isopropylpyrazol-1-yl)-1-piperidyl]methyl]-1-(tetrahydropyran-4-carbonyl)piperidine-4-carboxylic acid] | 105 | – |
| CC(C)c1ccnn1C1(C(=O)Nc2ccc(Cl)cc2OC(F)F)CCN(CC2(C(=O)O)CCN(C(=O)C34CC(F)(C3)C4)CC2)CC1 [Compound 72, 4-[[4-[[4-chloro-2-(difluoromethoxy)phenyl]carbamoyl]-4-(5-isopropylpyrazol-1-yl)-1-piperidyl]methyl]-1-(3-fluorobicyclo[1.1.1]pentane-1-carbonyl)piperidine-4-carboxylic acid] | 18.8 | – |
| CC(C)c1ccnn1C1(C(=O)Nc2ccc(Cl)cc2OC(F)F)CCN(CC2(C(=O)O)CC23CCOCC3)CC1 (centres unmarked) [Compound 73, 2-[[4-[[4-chloro-2-(difluoromethoxy)phenyl]carbamoyl]-4-(5-isopropylpyrazol-1-yl)-1-piperidyl]methyl]-6-oxaspiro[2.5]octane-2-carboxylic acid] | 37.2 | – |
| CC(C)c1ccnn1C1(C(=O)Nc2ccc(Cl)cc2OC(F)F)CCN(CC2(C(=O)O)CC=CC2)CC1 [Compound 74, 1-[[4-[[4-chloro-2-(difluoromethoxy)phenyl]carbamoyl]-4-(5-isopropylpyrazol-1-yl)-1-piperidyl]methyl]cyclopent-3-ene-1-carboxylic acid] | 10.8 | – |
| CC(C)C(=O)N1CCC(CN2CCC(C(=O)Nc3ccc(Cl)cc3OC(F)F)(n3nccc3C(C)C)CC2)(C(=O)O)CC1 [Compound 75, 4-[[4-[[4-chloro-2-(difluoromethoxy)phenyl]carbamoyl]-4-(5-isopropylpyrazol-1-yl)-1-piperidyl]methyl]-1-(2-methylpropanoyl)piperidine-4-carboxylic acid] | 32.7 | – |
| CC(C)c1ccnn1C1(C(=O)Nc2ccc(Cl)cc2OC(F)F)CCN(CC2(C(=O)O)CC2)CC1 [Compound 76, 1-[[4-[[4-chloro-2-(difluoromethoxy)phenyl]carbamoyl]-4-(5-isopropylpyrazol-1-yl)-1-piperidyl]methyl]cyclopropanecarboxylic acid] | 65.5 | – |
| CC(C)c1ccnn1C1(C(=O)Nc2ccc(Cl)cc2OC(F)F)CCN([C@H]2C[C@@](C)(C(=O)O)C2)CC1 [Compound 77, (1s,38)-3-[4-[[4-chloro-2-(difluoromethoxy)phenyl]carbamoyl]-4-(5-isopropylpyrazol-1-yl)-1-piperidyl]-1-methyl-cyclobutanecarboxylic acid] | – | 43.6 |
| CC(C)c1ccnn1C1(C(=O)Nc2ccc(Cl)cc2OC(F)F)CCN(CC2(C(=O)O)CCN(C(=O)C34CC(C)(C3)C4)CC2)CC1 [Compound 79, 4-[[4-[[4-chloro-2-(difluoromethoxy)phenyl]carbamoyl]-4-(5-isopropylpyrazol-1-yl)-1-piperidyl]methyl]-1-(3-metbylbicyclo[1.1.1]pentane-1-carbonyl)piperidine-4-carboxylic acid] | 15.7 | – |
| CC(C)c1ccnn1C1(C(=O)Nc2ccc(Cl)cc2OC(F)F)CCN(CC2(C(=O)O)CCN(C(=O)C34CC(C#N)(C3)C4)CC2)CC1 [Compound 80, 4-[[4-[[4-chloro-2-(difluoromethoxy)phenyl]carbamoyl]-4-(5-isopropylpyrazol-1-yl)-1-piperidyl]methyl]-1-(3-cyanobicyclo[1.1.1]pentane-1-carbonyl)piperidine-4-carboxylic acid] | 129 | – |
| COc1cnn(C2(C(=O)Nc3ccc(Cl)cc3OC(F)F)CCN(CC3(C(=O)O)CCOCC3)CC2)c1C(C)C [Compound 81, 4-[[4-[[4-chloro-2-(difluoromethoxy)phenyl]carbamoyl]-4-(5-isopropyl-4-methoxy-pyrazol-1-yl)-1-piperidyl]methyl]tetrahydropyran-4-carboxylic acid] | 43 | – |
| CC(C)CC(=O)N1CCC(CN2CCC(C(=O)Nc3ccc(Cl)cc3OC(F)F)(n3nccc3C(C)C)CC2)(C(=O)O)CC1 [Compound 82, 4-[[4-[[4-chloro-2-(difluoromethoxy)phenyl]carbamoyl]-4-(5-isopropylpyrazol-1-yl)-1-piperidyl]methyl]-1-(3-methylbutanoyl)piperidine-4-carboxylic acid] | 21.9 | – |
| CC(C)c1ccnn1C1(C(=O)Nc2ccc(Cl)cc2OC(F)F)CCN(CC(C)(C)C(=O)O)CC1 [Compound 83, 3-[4-[[4-chloro-2-(difluoromethoxy)phenyl]carbamoyl]-4-(5-isopropylpyrazol-1-yl)-1-piperidyl]-2,2-dimethyl-propanoic acid] | 24.4 | – |
| CC1(C)OCc2cnn(C3(C(=O)Nc4ccc(Cl)cc4OC(F)F)CCN(CC4(C(=O)O)CCOCC4)CC3)c21 [Compound 84, 4-[[4-[[4-chloro-2-(difluoromethoxy)phenyl]carbamoyl]-4-(6,6-dimethyl-4H-furo[3,4-c]pyrazol-1-yl)-1-piperidyl]methyl]tetrahydropyran-4-carboxylic acid] | – | 57.2 |
| CCOCC1(C(=O)N2CCC(CN3CCC(C(=O)Nc4ccc(Cl)cc4OC(F)F)(n4nccc4C(C)C)CC3)(C(=O)O)CC2)CC1 [Compound 85, 4-[[4-[[4-chloro-2-(difluoromethoxy)phenyl]carbamoyl]-4-(5-isopropylpyrazol-1-yl)-1-piperidyl]methyl]-1-[1-(ethoxymethyl)cyclopropanecarbonyl] piperidine-4-carboxylic acid] | 53.7 | – |
| CC(C)c1ccnn1C1(C(=O)Nc2ccc(Cl)cc2OC(F)F)CCN(C[C@@H](C)C(=O)O)CC1 [Compound 86, (2R)-3-[4-[[4-chloro-2-(difluoromethoxy)phenyl]carbamoyl]-4-(5-isopropylpyrazol-1-yl)-1-piperidyl]-2-methyl-propanoic acid] | 20.2 | – |
| CC(C)c1ccnn1C1(C(=O)Nc2ccc(Cl)cc2OC(F)F)CCN(C[C@H](C)C(=O)O)CC1 [Compound 87, (2S)-3-[4-[[4-chloro-2-(difluoromethoxy)phenyl]carbamoyl]-4-(5-isopropylpyrazol-1-yl)-1-piperidyl]-2-methyl-propanoic acid] | 32.3 | – |
| CC(C)OC(=O)N1CCC(CN2CCC(C(=O)Nc3ccc(Cl)cc3OC(F)F)(n3nccc3C(C)C)CC2)(C(=O)O)CC1 [Compound 88] | 13.3 | – |
| CC(C)COC(=O)N1CCC(CN2CCC(C(=O)Nc3ccc(Cl)cc3OC(F)F)(n3nccc3C(C)C)CC2)(C(=O)O)CC1 [Compound 89, 4-[[4-[[4-chloro-2-(difluoromethoxy)phenyl]carbamoyl]-4-(5-isopropylpyrazol-1-yl)-1-piperidyl]methyl]-1-isobutoxycarbonyl-piperidine-4-carboxylic acid] | 5.93 | – |
| CC(C)c1ccnn1C1(C(=O)Nc2ccc(Cl)cc2OC(F)F)CCN(CC2(C(=O)O)CCN(C(=O)OCC(C)(C)C)CC2)CC1 [Compound 90, 4-[[4-[[4-chloro-2-(difluoromethoxy)phenyl]carbamoyl]-4-(5-isopropylpyrazol-1-yl)-1-piperidyl]methyl]-1-(2,2-dimethylpropoxycarbonyl) piperidine-4-carboxylic acid] | 5.54 | – |
| CC1CCc2cnn(C3(C(=O)Nc4ccc(Cl)cc4OC(F)F)CCN(CC4(C(=O)O)CCOCC4)CC3)c21 (centres unmarked) [Compound 91, 4-[[4-[[4-chloro-2-(difluoromethoxy)phenyl]carbamoyl]-4-(6-methyl-5,6-dihydro-4H-cyclopenta[e]pyrazol-1-yl)-1-piperidyl]methy] tetrahydropyran-4-carboxylic acid] | 23 | – |
| CC(C)c1ccnn1C1(C(=O)Nc2ccc(Cl)cc2OC(F)F)CCN(CC2(C(=O)O)CCN(C(=O)C[C@H]3CCOC3)CC2)CC1 [Compound 92, 4-[[4-[[4-chloro-2-(difluoromethoxy)phenyl]carbamoyl]-4-(5-isopropylpyrazol-1-yl)-1-piperidyl]methyl]-1-[2-[(3R)-tetrahydrofuran-3-yl]acetyl]piperidine-4-carboxylic acid] | 119 | – |
| CC(C)c1ccnn1C1(C(=O)Nc2ccc(Cl)cc2OC(F)F)CCN(CC2(C(=O)O)CCN(C(=O)C[C@@H]3CCOC3)CC2)CC1 [Compound 93, 4-[[4-[[4-chloro-2-(difluoromethoxy)phenyl]carbamoyl]-4-(5-isopropylpyrazol-1-yl)-1-piperidyl]methyl]-1-[2-[(3S)-tetrahydrofuran-3-yl]acetyl]piperidine-4-carboxylic acid] | 539 | – |
| CC(C)c1ccnn1C1(C(=O)Nc2ccc(Cl)cc2OC(F)F)CCN([C@H]2C[C@@H](CC(=O)O)C2)CC1 [Compound 94, (1s,3s)-2-[3-[4-[[4-chloro-2-(difluoromethoxy)phenyl]carbamoyl]-4-(5-isopropylpyrazol-1-yl)-1-piperidyl]cyclobutyl] acetic acid] | 40.8 | – |
| CC(C)c1ccnn1C1(C(=O)Nc2ccc(Cl)cc2OC(F)F)CCN(C(=N)[C@@H]2C[C@@H]2C(=O)O)CC1 [Compound 96, (1S,2R)-2-[4-[[4-chloro-2-(difluoromethoxy)phenyl]carbamoyl]-4-(5-isopropylpyrazol-1-yl)piperidine-1-carboximidoyl] cyclopropanecarboxylic acid] | 23.4 | – |

— US20260102383A1, “LPAR1 Inhibitors” (AbbVie Inc., priority 2024, published 2026)
